These compounds were tested against human Kv7.2 (Homo sapiens (Human), UniProt O43526) (assay: SyncroPatch 384 electrophysiology, activation of Kv7.2 in CHO cells). Settings: Kv7.2 activation max %, relative to 30 μM ML-213 max activation.
Format: cell-based
Description: The potency of Kv7 uotentiators was determined using the SyncroPatch 384 (Nanion) high throughput electrophysiology platform.
CHO cells stably expressing either human Kv7.2, Kv7.4 or Kv7.5/7.3 under a constitutive CMV promoter were used for these studies. Cells were maintained in F12 Hams+1 mM L-glutamine (Hyclone) supplemented with 10% FBS (Sigma), 0.3× NEAA (Non-essential Gamino-acids) and 400ug/ml G418 at 37° C. in 5% CO2. Cells were cultured in T-225 flasks (Nunc) for 2-3 days to reach 85-95% confluence prior to electrophysiological recording.
Earle's balanced salt solution (in mM): 135 NaCl, 5.4 KCl, 5 Glucose, 2 CaCl2), 1 MgCl2, 5 HEPES, pH 7.4. Seal enhancer solution (in mM): 90 NaCl, 3 KCl, 35 CaCl2), 10 MgCl2, 10 HEPES, pH 7.4. Extracellular recording solution (in mM): 71 NaCl, 70 NMDG, 13 KCl, 5 Glucose, 2 CaCl2), 1 MgCl2, 10 HEPES, pH 7.4. Intracellular recording solution (in mM): 130 KF, 20 KCl, 4 EGTA, 10 HEPES, 2 EDTA, 0.01 Escin, pH 7.2.
Cells were harvested for electrophysiological recording upon reaching appropriate confluence. Cells were first washed in DPBS (Hyclone, Cat #SH30028.03) and then 2 ml of Accutase (MP Biomedicals #1000449) was added at 28° C. until ˜90% of cells were suspended. F12 HAM's media+1 mM L-glutamine (Hyclone, SH30026.02) was then added to the flask to dilute the accutase. Cells were then triturated until a single cell suspension was achieved, a cell count was performed, and cells were centrifuged for 2 min. at 1,000 rpm. Media was then aspirated, and cells were resuspended in Earle's balanced salt solution to a concentration of 0.75×10^6 cells/ml and allowed to recover for 25 min at 10° C.
At the beginning of each assay, 20 μl of cell suspension was dispensed into each well of a multi-hole 384-well SyncroPatch chip by the onboard pipettor. Cell sealing was initiated, and seal enhancer solution was added to facilitate seal formation. Upon completion of sealing, cells were washed 3 times with extracellular recording solution and the assay voltage protocol was started. Human Kv7.2, Kv7.4 or Kv7.5/7.3 channels were evaluated using a voltage protocol in which cells were voltage-clamped at a holding potential of −60 mV. Potassium currents were continuously activated with a series of three voltage steps to −30 mV for 3 seconds, 40 mV for 1 second and −90 mV for 4 seconds with 12 seconds between successive voltage sweeps. Potassium currents were measured from the −90 mV repolarizing step. Baseline current was assessed for 3.5 minutes prior to the addition of 5.6 μM zinc pyrithione (1μM for Kv7.4). Kv7.2, Kv7.4 or Kv7.5/7.3 current in the presence of zinc pyrithione was acquired over five minutes to allow channels to reach steady state activity prior to addition of test agents. Channel activity was monitored for three minutes preceding the addition of 30 μM ML-213 (3 minutes) to achieve maximum activation. 150 mM TEA with 10 μM XE-991 was applied for 2 minutes to measure the leak current during maximum inhibition of Kv7.2, Kv7.4 or Kv7.5/7.3 channels.
Example 61 Data Analysis Data were collected on the SyncroPatch platform using PatchControl software (Nanion) and processed and analyzed using DataControl Software (Nanion). Percent activation was calculated from potassium current as follows: The average current for the 5 sweeps in the presence of zinc pyrithione immediately preceding test agent addition was taken as the ‘control’ data. Likewise, the average potassium current in the presence of test agents 5 sweeps immediately preceding addition of 30 μM ML-213 was determined for ‘drug’ data. The average potassium current 5 sweeps immediately prior to addition of 150 mM TEA+10 μM XE-991 was determined for ‘max activation’ data while average currents from 5 sweeps immediately following addition of TEA was determined for ‘max inhibition’ data. […]
In the case of `COC12CC(NC(=O)NCc3cccc(OC(F)(F)F)c3)(C1)C2` [Example 1, 1-(3-methoxy-1-bicyclo[1.1.1]pentanyl)-3-[[3-(trifluoromethoxy)phenyl]methyl]urea], the Kv7.2 max is reported as 73%. `O=C(NCc1cccc(C(F)F)c1)NC12CC(C(F)(F)F)(C1)C2` [Example 31, 1-[[3-(difluoromethyl)phenyl]methyl]-3-[3-(trifluoromethyl)-1-bicyclo[1.1.1]pentanyl]urea] showed a Kv7.2 max of 60%. For `O=C(NCc1cccc(C=C(F)F)c1)NC12CC(F)(C1)C2` [Example 45, 1-[[3-(2,2-difluoroethenyl)phenyl]methyl]-3-(3-fluoro-1-bicyclo[1.1.1]pentanyl)urea], the Kv7.2 max was 71%. For `CC(C)C12CC(NC(=O)N[C@@H](C)c3cccc(OC(F)(F)F)c3)(C1)C2` [Example 27, 1-(3-propan-2-yl-1-bicyclo[1.1.1]pentanyl)-3-[(1S)-1-[3-(trifluoromethoxy)phenyl]ethyl]urea], the Kv7.2 max was 40%. With `O=C(NCc1cccc(OC(F)(F)F)c1)NC12CC(C(F)(F)F)(C1)C2` [Example 2, 1-[[3-(trifluoromethoxy)phenyl]methyl]-3-[3-(trifluoromethyl)-1-bicyclo[1.1.1]pentanyl]urea] the Kv7.2 max was 70%. With `O=C(NCc1cccc(C(F)(F)F)c1)NC12CC(C(F)(F)F)(C1)C2` [Example 7, 1-[3-(trifluoromethyl)-1-bicyclo[1.1.1]pentanyl]-3-[[3-(trifluoromethyl)phenyl]methyl]urea] the Kv7.2 max was 75%. Work on `CC(NC(=O)NC12CC(C1)C2)c1cccc(OC(F)(F)F)c1` (stereo not drawn) [Example 37, 1-(1-bicyclo[1.1.1]pentanyl)-3-[1-[3-(trifluoromethoxy)phenyl]ethyl]urea] yielded a Kv7.2 max of 44%. `O=C(N[C@@H](CO)c1cccc(Cl)c1)NC12CC(C(F)(F)F)(C1)C2` [Example 3, 1-[(1R)-1-(3-chlorophenyl)-2-hydroxyethyl]-3-[3-(trifluoromethyl)-1-bicyclo[1.1.1]pentanyl]urea] was tested, and the Kv7.2 max was 48%. With `N#Cc1cccc(CNC(=O)NC23CC(F)(C2)C3)c1` [Example 13, 1-[(3-cyanophenyl)methyl]-3-(3-fluoro-1-bicyclo[1.1.1]pentanyl)urea] the Kv7.2 max was 48%. Work on `C[C@H](NC(=O)NC12CC(F)(C1)C2)c1cccc(OC(F)(F)F)c1` [Example 10, 1-(3-fluoro-1-bicyclo[1.1.1]pentanyl)-3-[(1S)-1-[3-(trifluoromethoxy)phenyl]ethyl]urea] yielded a Kv7.2 max of 40%. For `C[C@H](NC(=O)NC12CC(C)(C1)C2)c1cccc(OC(F)(F)F)c1` [Example 26, 1-(3-methyl-1-bicyclo[1.1.1]pentanyl)-3-[(1S)-1-[3-(trifluoromethoxy)phenyl]ethyl]urea], the Kv7.2 max was 58%. In the case of `C[C@H](NC(=O)NC12CC(F)(C1)C2)c1cccc(C(F)(F)F)c1` [Example 9, 1-(3-fluoro-1-bicyclo[1.1.1]pentanyl)-3-[(1S)-1-[3-(trifluoromethyl)phenyl]ethyl]urea], the Kv7.2 max is reported as 51%. `C[C@H](NC(=O)NC12CC(C1)C2)c1cccc(C(F)(F)F)c1` [Example 51, 1-(1-bicyclo[1.1.1]pentanyl)-3-[(1S)-1-[3-(trifluoromethyl)phenyl]ethyl]urea] gave a Kv7.2 max of 52%. With `C[C@H](NC(=O)NC12CC(F)(C1)C2)c1cccc(F)c1` [Example 24, 1-(3-fluoro-1-bicyclo[1.1.1]pentanyl)-3-[(1S)-1-(3-fluorophenyl)ethyl]urea] the Kv7.2 max was 51%. With `COc1cccc([C@H](C)NC(=O)NC23CC(F)(C2)C3)c1` [Example 8, 1-(3-fluoro-1-bicyclo[1.1.1]pentanyl)-3-[(1S)-1-(3-methoxyphenyl)ethyl]urea] the Kv7.2 max was 57%. For `O=C(NCc1cccc(Br)c1)NC12CC(C1)C2` [Example 40, 1-(1-bicyclo[1.1.1]pentanyl)-3-[(3-bromophenyl)methyl]urea], the Kv7.2 max was 58%. `C[C@H](NC(=O)NC12CC(C1)C2)c1cccc(OC(F)(F)F)c1` [Example 25, 1-(1-bicyclo[1.1.1]pentanyl)-3-[(1S)-1-[3-(trifluoromethoxy)phenyl]ethyl]urea] showed a Kv7.2 max of 45%. In the case of `N#Cc1cccc(CNC(=O)NC23CC(C(F)(F)F)(C2)C3)c1` [Example 5, 1-[(3-cyanophenyl)methyl]-3-[3-(trifluoromethyl)-1-bicyclo[1.1.1]pentanyl]urea], the Kv7.2 max is reported as 41%. With `CC12CC(NC(=O)NCc3cccc(C(F)(F)F)c3)(C1)C2` [Example 20, 1-(3-methyl-1-bicyclo[1.1.1]pentanyl)-3-[[3-(trifluoromethyl)phenyl]methyl]urea] the Kv7.2 max was 77%. `N#Cc1cccc(CNC(=O)NC23CC(C(F)(F)F)(C2)C3)c1F` [Example 47, 1-[(3-cyano-2-fluorophenyl)methyl]-3-[3-(trifluoromethyl)-1-bicyclo[1.1.1]pentanyl]urea] gave a Kv7.2 max of 40%. In the case of `O=C(NCc1cccc(SC(F)(F)F)c1)NC12CC(F)(C1)C2` [Example 50, 1-(3-fluoro-1-bicyclo[1.1.1]pentanyl)-3-[[3-(trifluoromethylsulfanyl)phenyl]methyl]urea], the Kv7.2 max is reported as 72%. With `O=C(N[C@H](CO)c1cccc(Br)c1)NC12CC(C(F)(F)F)(C1)C2` [Example 44, 1-[(1S)-1-(3-bromophenyl)-2-hydroxyethyl]-3-[3-(trifluoromethyl)-1-bicyclo[1.1.1]pentanyl]urea] the Kv7.2 max was 40%. With `O=C(NCc1cccc(OC(F)(F)F)c1)NC12CC(F)(C1)C2` [Example 6, 1-(3-fluoro-1-bicyclo[1.1.1]pentanyl)-3-[[3-(trifluoromethoxy)phenyl]methyl]urea] the Kv7.2 max was 76%. `O=C(NCc1cccc(OC(F)(F)F)c1)NC12CC(C1)C2` [Example 28, 1-(1-bicyclo[1.1.1]pentanyl)-3-[[3-(trifluoromethoxy)phenyl]methyl]urea] gave a Kv7.2 max of 75%. `O=C(N[C@@H](CO)c1cccc(C(F)(F)F)c1)NC12CC(C(F)(F)F)(C1)C2` [Example 48, 1-[(1R)-2-hydroxy-1-[3-(trifluoromethyl)phenyl]ethyl]-3-[3-(trifluoromethyl)-1-bicyclo[1.1.1]pentanyl]urea] was tested, and the Kv7.2 max was 78%. `O=C(NCc1ccc2c(c1)OC(F)(F)O2)NC12CC(C(F)(F)F)(C1)C2` [Example 33, 1-[(2,2-difluoro-1,3-benzodioxol-5-yl)methyl]-3-[3-(trifluoromethyl)-1-bicyclo[1.1.1]pentanyl]urea] was tested, and the Kv7.2 max was 58%. Work on `[2H]C([2H])(NC(=O)NC12CC(C(F)(F)F)(C1)C2)c1cccc(C#N)c1` [Example 52, 1-[(3-cyanophenyl)-dideuteriomethyl]-3-[3-(trifluoromethyl)-1-bicyclo[1.1.1]pentanyl]urea] yielded a Kv7.2 max of 42%.

— US20250002452A1, “BICYCLOPENTANE DERIVATIVES” (ICAGEN, LLC, priority 2022, published 2025)
